Test results from patent publication US5614527A, “Insecticidal tetrahydrofuran-compound” (Mitsui Toatsu Chemicals, Inc., priority 1994, dated 1997).
Like-named read-outs stand apart in the source and are kept apart here.

What was measured:
[1] = system: Spodoptera litura Fabricius--Common cutworm; assay: Effect on common cutworm (mortality, leaf immersion); format: in vivo; details: second instar larvae, 25° C.; for mortality at 1000 ppm: Spodoptera litura, 72 h; for Mortality (%): 1000 ppm, 72 hours, 4320 min
Experimental: (§1) 20 parts of a compound of the present invention, 10 parts of Sorpol 355S (made by Toho Chemical Co., Ltd., a surface active agent), 70 parts of xylene were uniformly stirred and mixed to obtain an emulsion. Here, the parts mean parts by weight, which will apply to the following.
Effect on Spodoptera litura Fabricius--Common cutworm
The emulsion of each compound of the present invention prepared according to Formulation Example 1 was diluted with distilled water to a predetermined concentration, and a spreading agent New Gramin, made by Sankyo Co., Ltd.) was then added thereto so that its concentration might be 0.02%. Then, 3leaves of Ipomea batatas were fully immersed in the solution. After drying in air, the leaves were placed in a plastic cup having a diameter of 9 cm and a depth of 4 cm, and 10 second instar larvae of common cutworm were allowed to eat the leaves at 25° C. After 72 hours, mortality was checked.

[2] = system: Laodelphax striatellus Fallen--Smaller brown planthopper; assay: Effect on smaller brown planthopper (mortality, treated rice seedlings); format: in vivo; details: female adults, 25° C., 48 hours
Experimental: (§2) Effect on Laodelphax striatellus Fallen--Smaller brown planthopper Each compound of the present invention was dissolved in acetone to prepare an acetone solution having a predetermined concentration, and 3 ml of the acetone solution was applied over a bundle of several rice seedlings (about third leaf stage). After drying in air, the treated seedlings were covered with a metal gauze cylinder, and ten female adults of smaller brown planthopper were introduced into the cylinder. Afterward, this cylinder was placed in a temperature controlled room at 25° C. and after 48 hours, mortality was checked.

[3] = system: Myzus persicae Sulzer--Green peach aphid; assay: Effect on green peach aphid (mortality, sprayed eggplant seedlings); format: in vivo; details: for mortality at 10 ppm / mortality at 100 ppm: Myzus persicae, 48 h; for Mortality (%): 48 hours
Experimental: as §1
Effect on Myzus persicae Sulzer--Green peach aphid
The emulsion of each compound of the present invention prepared according to Formulation Example 1 was diluted with distilled water to a predetermined concentration, and a spreading agent (New Gramn, made by Sankyo Co., Ltd.) was then added thereto so that its concentration might be 0.02%. Then, the thus prepared chemical solution was sprayed over eggplant seedlings of 2nd and 3rd plastochrons, on which green peach aphids had been parasitic, and the seedlings were the cultivated in a hothouse. After 48 hours, the number of the alive green peach aphid was counted to calculate mortality.

[4] = system: resistant strain of Nepphotettix cincticeptus Unler--Resistant green rice leafhopper; assay: Effect on resistant green rice leafhopper (mortality, treated rice seedlings); format: in vivo; details: for mortality at 200 ppm / mortality at 1000 ppm: Nephotettix cincticeps
Experimental: Effect on resistant strain of Nepphotettix cincticeptus Unler--Resistant green rice leafhopper
as §2, with “Each” for “Effect on Laodelphax striatellus Fallen--Smaller brown planthopper Each”, “resistant green rice leafhopper” for “smaller brown planthopper”, “C.,” for “C.”

[5] = Acute toxicity to mice (oral); details: mouse, in vivo; oral (stomach tube); male mice 6 weeks old; 14 days observation
Experimental: 5-week-old male mice (Crj: CD-1) were purchased and then tamed for 1 week, and so the mice of 6 weeks old were tested. The mice were bred in a breeding chamber having a temperature of 23°±2° C., a humidity of 50±10%, a ventilation frequency of 15 times/hour and a lighting time of 12 hours/day. A solid feed (CE-2, made by Nippon Clea) was given, and as drinking water, tap water was freely given.
Each compound to be tested was Suspended in acetone:corn oil (1:9) by the use of a high-speed homogenizer, and then orally administered forcedly to the mice to be tested through a stomach tube. The amount of the solution to be administered was 0.1 ml with respect to 10 g of weight (10 ml/kg).
One administration group was constituted of 5 mice, and an observation period was 14 days from the administration.

[6] = 200 ppm, female adults, 25° C., 48 hours, read-out: Mortality (%)
[7] = 1000 ppm, female adults, 25° C., 48 hours, read-out: Mortality (%)

SMILES: O=[N+]([O-])N=C1NCCN1CC1CCCO1 (centres unmarked) [Comparative Compound (1), 1-[(tetrahydro-2-furanyl)methyl]-2-(nitroimino)imidazolidine, reference compound]
- mortality at 1000 ppm [1]: 0%
- Mortality (%) ([2]; 200 ppm): 0%
- Mortality (%) ([2]; 1000 ppm): 20%
- mortality at 10 ppm ([3]; 10 ppm): 0%
- mortality at 100 ppm ([3]; 100 ppm): 0%
- mortality at 200 ppm [4, 6]: 0%
- mortality at 1000 ppm [4, 7]: 30%

SMILES: O=[N+]([O-])N=C1NCCN1Cc1ccoc1 [Comparative Compound (2), reference compound]
- mortality at 1000 ppm [1]: 0%
- Mortality (%) ([2]; 200 ppm): 0%
- Mortality (%) ([2]; 1000 ppm): 40%

SMILES: O=[N+]([O-])C=C1NCCCN1CC1CCOC1 (centres unmarked) [Comparative Compound (3), reference compound]
- mortality at 1000 ppm [1]: 0%

SMILES: O=[N+]([O-])/N=C1\NCCCN1Cc1ccc(Cl)nc1 [Comparative Compound (4), reference compound]
- LD50 at 336 h [5]: 30 to 100 mg/kg

SMILES: O=[N+]([O-])N=C1NCCCN1CC1CCOC1 (centres unmarked) [Compound No. 1, 1-[(tetrahydro-3-furanyl)methyl]-2-(nitroimino)hexahydropyrimidine]
- LD50 at 336 h [5]: > 300 mg/kg
- mortality at 1000 ppm [1]: 70%
- Mortality (%) ([2]; 200 ppm): 100%
- Mortality (%) ([2]; 1000 ppm): 100%
- mortality at 10 ppm ([3]; 10 ppm): 100%
- mortality at 100 ppm ([3]; 100 ppm): 100%
- mortality at 200 ppm ([4]; 48 h): 100%
- mortality at 1000 ppm ([4]; 48 h): 100%

SMILES: CC1CC(CN2CCCNC2=N[N+](=O)[O-])CO1 (centres unmarked) [Compound No. 2, 1-[(2-methyl-4-tetrahydrofuryl)methyl]-2-(nitroimino)hexahydropyrimidine]
- LD50 at 336 h [5]: > 500 mg/kg
- Mortality (%) ([2]; 200 ppm): 100%
- Mortality (%) ([2]; 1000 ppm): 100%
- mortality at 10 ppm ([3]; 10 ppm): 100%
- mortality at 100 ppm ([3]; 100 ppm): 100%
- mortality at 200 ppm ([4]; 48 h): 100%
- mortality at 1000 ppm ([4]; 48 h): 100%

SMILES: CC1(C)CC(CN2CCCNC2=N[N+](=O)[O-])CO1 (centres unmarked) [Compound No. 3, 1-[(2,2-dimethyl-4-tetrahydrofuryl)methyl]-2-(nitroimino)hexahydropyrimidine]
- Mortality (%) ([2]; 200 ppm): 100%
- Mortality (%) ([2]; 1000 ppm): 100%
- mortality at 10 ppm ([3]; 10 ppm): 100%
- mortality at 100 ppm ([3]; 100 ppm): 100%
- mortality at 200 ppm [4, 6]: 100%
- mortality at 1000 ppm [4, 7]: 100%

SMILES: O=[N+]([O-])N=C1NCCN1CC1CCOC1 (centres unmarked) [Compound No. 4, 1-[(tetrahydro-3-furanyl)methyl]-2-(nitroimino)imidazolidine]
- mortality at 1000 ppm [1]: 100%
- Mortality (%) ([2]; 200 ppm): 100%
- Mortality (%) ([2]; 1000 ppm): 100%
- mortality at 10 ppm ([3]; 10 ppm): 67%
- mortality at 100 ppm ([3]; 100 ppm): 100%
- mortality at 200 ppm [4, 6]: 100%
- mortality at 1000 ppm [4, 7]: 100%

SMILES: CC1CC(CN2CCNC2=N[N+](=O)[O-])CO1 (centres unmarked) [Compound No. 5, 1-[(2-methyl-4-tetrahydrofuryl)methyl]-2-(nitroimino)imidazolidine]
- Mortality (%) ([2]; 200 ppm): 100%
- Mortality (%) ([2]; 1000 ppm): 100%
- mortality at 10 ppm ([3]; 10 ppm): 100%
- mortality at 100 ppm ([3]; 100 ppm): 100%
- mortality at 200 ppm [4, 6]: 100%
- mortality at 1000 ppm [4, 7]: 100%

SMILES: CC1(C)CC(CN2CCNC2=N[N+](=O)[O-])CO1 (centres unmarked) [Compound No. 6, 1-[(2,2-dimethyl-4-tetrahydrofuryl)methyl]-2-(nitroimino)imidazolidine]
- Mortality (%) ([2]; 200 ppm): 100%
- Mortality (%) ([2]; 1000 ppm): 100%
- mortality at 10 ppm ([3]; 10 ppm): 82%
- mortality at 100 ppm ([3]; 100 ppm): 100%
- mortality at 200 ppm [4, 6]: 100%
- mortality at 1000 ppm [4, 7]: 100%

SMILES: CC(=O)N1CCN(CC2CCOC2)C1=N[N+](=O)[O-] (centres unmarked) [Compound No. 7, 1-(methylcarbonyl)-2-(nitroimino)-3-[(tetrahydro-3-furanyl)methyl]imidazolidine]
- mortality at 1000 ppm [1]: 100%
- Mortality (%) ([2]; 200 ppm): 100%
- Mortality (%) ([2]; 1000 ppm): 100%
- mortality at 10 ppm ([3]; 10 ppm): 63%
- mortality at 100 ppm ([3]; 100 ppm): 100%
- mortality at 200 ppm [4, 6]: 100%
- mortality at 1000 ppm [4, 7]: 100%

SMILES: CC(=O)N1CCCN(CC2CCOC2)C1=N[N+](=O)[O-] (centres unmarked) [Compound No. 8, 1-(methylcarbonyl)-2-(nitroimino)-3-[(tetrahydro-3-furanyl)methyl]hexahydropyrimidine]
- Mortality (%) ([2]; 200 ppm): 100%
- Mortality (%) ([2]; 1000 ppm): 100%
- mortality at 10 ppm ([3]; 10 ppm): 100%
- mortality at 100 ppm ([3]; 100 ppm): 100%
- mortality at 200 ppm [4, 6]: 100%
- mortality at 1000 ppm [4, 7]: 100%

SMILES: CC(C)C(=O)N1CCCN(CC2CCOC2)C1=N[N+](=O)[O-] (centres unmarked) [Compound No. 9, 1-(isopropylcarbonyl)-2-(nitroimino)-3-[(tetrahydro-3-furanyl)methyl]hexahydropyrimidine]
- Mortality (%) ([2]; 200 ppm): 100%
- Mortality (%) ([2]; 1000 ppm): 100%
- mortality at 10 ppm ([3]; 10 ppm): 86%
- mortality at 100 ppm ([3]; 100 ppm): 100%
- mortality at 200 ppm [4, 6]: 100%
- mortality at 1000 ppm [4, 7]: 100%

SMILES: CC(=O)N1CCCN(CC2COC(C)C2)C1=N[N+](=O)[O-] (centres unmarked) [Compound No. 10, 1-(methylcarbonyl)-3-[(2-methyl-4-tetrahydrofuryl)methyl]-2-(nitroimino) hexahydropyrimidine]
- mortality at 1000 ppm [1]: 100%
- Mortality (%) ([2]; 200 ppm): 100%
- Mortality (%) ([2]; 1000 ppm): 100%
- mortality at 10 ppm ([3]; 10 ppm): 100%
- mortality at 100 ppm ([3]; 100 ppm): 100%
- mortality at 200 ppm [4, 6]: 100%
- mortality at 1000 ppm [4, 7]: 100%

SMILES: CCC(=O)N1CCCN(CC2CCOC2)C1=N[N+](=O)[O-] (centres unmarked) [Compound No. 11, 1-(ethylcarbonyl)-2-(nitroimino)-3-[(tetrahydro-3-furanyl)methyl]hexahydropyrimidine]
- Mortality (%) [1]: 70%
- Mortality (%) ([2]; 200 ppm): 100%
- Mortality (%) ([2]; 1000 ppm): 100%
- mortality at 100 ppm ([3]; 100 ppm): 100%
- mortality at 200 ppm [4, 6]: 100%
- mortality at 1000 ppm [4, 7]: 100%

SMILES: CCCC(=O)N1CCN(CC2CCOC2)C1=N[N+](=O)[O-] (centres unmarked) [Compound No. 12, 1-(propylcarbonyl)-2-(nitroimino)-3-[(tetrahydro-3-furanyl)methyl]imidazolidine]
- mortality at 1000 ppm [1]: 100%
- Mortality (%) ([2]; 200 ppm): 100%
- Mortality (%) ([2]; 1000 ppm): 100%
- mortality at 10 ppm ([3]; 10 ppm): 0%
- mortality at 100 ppm ([3]; 100 ppm): 66%
- mortality at 200 ppm [4, 6]: 100%
- mortality at 1000 ppm [4, 7]: 100%

SMILES: CCC(=O)N1CCCN(CC2CCOC2)C1=N[N+](=O)[O-] (centres unmarked) [Compound No. 13, 1-propionyl-2-(nitroimino)-3-[(tetrahydro-3-furanyl)methyl]hexahydropyrimidine]
- Mortality (%) [1]: 100%
- Mortality (%) ([2]; 200 ppm): 100%
- Mortality (%) ([2]; 1000 ppm): 100%
- Mortality (%) ([3]; 10 ppm, 2880 min): 27%
- Mortality (%) ([3]; 100 ppm): 100%
- Mortality (%) ([4]; 200 ppm, female adults, 25° C., 48 hours): 100%
- Mortality (%) ([4]; 1000 ppm, female adults, 25° C., 48 hours): 100%
